According to patent US20110257074A1, “METHOD FOR THE PURIFICATION OF SUBSTITUTED CYCLOPENT-2-EN-1-ONE CONGENERS AND SUBSTITUTED 1,3-CYCLOPENTADIONE CONGENERS FROM A COMPLEX MIXTURE USING COUNTERCURRENT SEPARATION” (Metaproteomics, LLC, priority 2008, published 2011):

Legend:
[1] = Shake-flask liquid distribution ratio (Kd), Hexane:Water:Buffer 10:9:1 solvent system; assay type: physicochemical
Method: Several shake-flask experiments were conducted to test several solvent systems and determine the liquid distribution ratio (Kd) and partition coefficient values for optimal separations. Partition coefficient values derived from shake-flask experiments are a reliable predictor of countercurrent chromatographic behavior. Kd is the concentration of the analyte in the upper phase divided by the concentration of the analyte in the lower phase and, in the alternative, may be listed as Ku/l.
General Procedure and Parameters for Shake Flask Experiments: Addition of 1 mL of the stock buffer at a known pH. Addition of the other necessary solvents to make up the system. Addition of the analyte mixture dissolved in hexane at 400 mg/mL. Final analyte concentration in the shake flask is 0.1 mg/mL. The flask was capped and mixed (by a vortex mixer) for 10 seconds. An aliquot was taken from the upper phase for HPLC analysis, and additionally a separate aliquot was taken from the lower phase for HPLC analysis from each flask. Each component was analyzed by HPLC and integrated using Shimadzu Class VP Software version 7.3 SP1.

[2] = Partition coefficient in trial HSCCC countercurrent separations of THIAA; assay type: physicochemical
Method: All HSCCC experimentation was conducted on a CCC-1000 J-type three-coiled planetary motion HSCCCC (Pharma-Tech Research Corp., Baltimore, Md., USA). The rotation radius is 7.5 cm, and 3×108 mL PTFE Teflon coils with an inner diameter of 1.6 mm, an outer diameter of 2.7 mm, and beta values of 0.47 to 0.73 for all coils. This was coupled with Shimadzu (Kyoto, Japan) liquid chromatography instrumentation: LC-20AT pump, DGU-20A5 degasser, CBM-20A controller, and SPD-10AV UV detector. A preparative Rheodyne (Rohnert Park, Calif. USA) 3725i-038 injector was in line with a 3.8 mL sample loop (changed to 10 mL for entry 7). The sample was monitored at 254 nm and 314 nm during the course of the run.
KU/L values for THIAA were determined in a variety of HEMWat solvent systems according to the shake-flask partitioning assay. Two solvent systems, referred to as A and B, provided K values within the range 1.5-2.5 and with significant differences between THIAA congeners (•K). For these reasons solvent systems A and B were selected for further development on the HSCCC (Table 9). […] The entries in Table 10 correspond to seven trial THIAA HSCCC purifications; entries 1-3 were conducted using solvent system A; entries 4-7 used solvent system B. Because of the difference in THIAA concentration between the shake-flask assay (0.1 mg/mL, 0.273 mM) and the HSCCC sample loop (100 mg/mL; 273 mM), aqueous phase buffer concentrations of 1.2 M (entries 1-3, Table 10) and 555 mM (entries 4-7, Table 10) were employed for the HSCCC trials. Entry 3 in Table 10 uses a bi-phasic sample-loop injection (solvent C, Table 9) consisting of 1.9 mL of upper phase (200 mg/mL THIAA, 0.55M) and 1.9 mL of lower phase (6.5M NH4HAc aq.). A switching volume was employed in entries 2, 6 and 7 in order to assess the elution-extrusion protocol as reported by Pauli et al.
Entries 4 & 5 Table 10, examine the effect of increasing the pH for solvent system B on the resolution between THIAA congeners. We reasoned that increased pH leads to a greater concentration of the ionized form of the THIAA (conjugate base) thus resulting in greater amounts of THIAA retained in the aqueous stationary phase i.e., increased retention volume (Vr).

[3] = trial 1, solvent system A, ascending elution, 680 rpm, 4 mL/min, 3.8 mL sample loop
[4] = trial 2, solvent system A, switching volume 320 mL, ascending elution, 680 rpm, 4 mL/min
[5] = trial 3, solvent system A, bi-phasic sample-loop injection (1.9 mL solvent system C), ascending elution
[6] = trial 4, solvent system B′, ascending elution, 680 rpm, 4 mL/min
[7] = trial 5, solvent system B, ascending elution, 680 rpm, 4 mL/min
[8] = trial 6, solvent system B, switching volume 600 mL, ascending elution
[9] = trial 7, solvent system B, switching volume 520 mL, 1.0 g raw material loaded, 10 mL sample loop

Row | SMILES | THIAA K Value ([1]; pH 4.9, Aug. 5, 2008) | THIAA K Value ([1]; pH 5.5, Aug. 5, 2008) | THIAA K Value ([1]; pH 5.6, Aug. 5, 2008) | THIAA K Value ([1]; pH 6.0, Aug. 5, 2008) | Partition Coefficient [2, 3] | Partition Coefficient [2, 4] | Partition Coefficient [2, 5] | Partition Coefficient [2, 6] | Partition Coefficient [2, 7] | Partition Coefficient [2, 8] | Partition Coefficient [2, 9]
1 | CC(C)CCC(=O)[C@]1(O)C(O)=C(C(=O)CC(C)C)C(=O)[C@H]1CCC(C)C [TH5, (+)-(4R,5S)-3,4-dihydroxy-2-(3-methylbutanoyl)-5-(3-methylbutyl)-4-(4-methylpentanoyl)cyclopent-2-en-1-one] | 32.8 | 9.5 | 6.6 | 3.3 | 1.4 | 1.4 | 1.4 | 0.9 | 1.3 | 1.3 | 1.5
2 | CC(C)CCC(=O)[C@@]1(O)C(O)=C(C(=O)C(C)C)C(=O)[C@H]1CCC(C)C [TH2, (−)-(4S,5S)-3,4-dihydroxy-2-isobutyryl-5-(3-methylbutyl)-4-(4-methylpentanoyl)cyclopent-2-en-1-one] | 10.8 | 2.5 | 1.8 | 0.9 | – | – | – | – | – | – | –
3 | CC(C)CCC(=O)[C@]1(O)C(O)=C(C(=O)C(C)C)C(=O)[C@H]1CCC(C)C [TH1, (+)-(4R,5S)-3,4-dihydroxy-2-isobutyryl-5-(3-methylbutyl)-4-(4-methylpentanoyl)cyclopent-2-en-1-one] | 16.5 | 4.2 | 3.0 | 1.5 | 2.0 | 2.0 | 2.1 | 1.7 | 2.5 | 2.7 | 2.6
4 | CCC(C)C(=O)C1=C(O)C(O)(C(=O)CCC(C)C)C(CCC(C)C)C1=O (stereo not drawn) [TH3, trans tetra ad-isoalpha acid] | 60.3 | 17.8 | 11.4 | 5.5 | – | – | – | – | – | – | –
5 | CCC(C)C(=O)C1=C(O)[C@@](O)(C(=O)CCC(C)C)[C@H](CCC(C)C)C1=O (single isomer, unassigned; (+)) [TH4] | 55.6 | 16.1 | 11.0 | 5.5 | 1.0 | 1.0 | 1.1 | 0.6 | 0.8 | 0.8 | 0.8
